Results on 1 compound are retold here after patent US10683273B2, “Compounds as DNA probes, methods and applications thereof” (JAWAHARLAL NEHRU CENTRE FOR ADVANCED SCIENTIFIC RESEARCH, priority 2015, dated 2020).

Series [1] concerns RNA. Briefly: Fluorescence response with RNA. The class given is binding. The following applies: QCy-DT 2 μM, RNA 4 μM, Tris-HCl. Here is the method: All the chemicals, reagents, single-stranded oligos (dA20, dT20, dG20, dC20), self-complementary oligos {d(ATAT)5, (D1)mix, Drew-AT, Calf-Thymus DNA (CT-DNA), (DM1, DM2, DM3, DM4, DM5, DM6 and DM7)}, RNA, were purchased from Sigma-Aldrich. ^1H and ^13C NMR spectra were recorded on a Bruker AV-400 MHz spectrometer with chemical shifts reported as parts per million (ppm) (in DMSO-d6, tetramethylsilane as an internal standard) at 20° C. UV-vis absorption and emission spectra were measured in quartz cuvettes of 1 cm path length. High resolution mass spectra (HRMS) were obtained on Agilent Technologies 6538 UHD Accurate-Mass Q-TOF LC/MS spectrometer. All biophysical studies (UV-vis, fluorescence and Cirular dichroism) are carried out at the concentration 0-5 μM of probe, volume=500 μL, temperature=25° C. and time of incubation=2 minutes. […]
The UV-vis absorption and emission spectra are recorded on Agilent Technologies Cary series UV-vis-NIR absorbance and Cary eclipse fluorescence spectrophotometers, respectively. […] Absorption is monitored at 260 nm with regular 5° C. intervals. Melting temperatures (Tm) of DNA samples are calculated from the first derivatives of the absorption vs. temperature curves (thermal denaturation or melting curves) obtained by monitoring at 260 nm. […]

In series [2] the test system is (A-T)20. Briefly: Fluorescence quantum yield in presence of DNA. It is filed as binding. The note with it: in presence of (A-T)20. Here is the method: (§1) Cresyl violet perchlorate in ethanol (ϕ=0.54) is used as the standard for the fluorescence quantum yield calculation using the absorption of the test sample. The emission spectral area is obtained in the 550-800 nm regions. Dilute solutions (10^−6 M) are used to minimize reabsorption effects of the dyes. Quantum yields are determined using the following equation, ϕs=ϕr(Fs/Fr)×(Ar/As)×(ns^2/nr^2)
(§2) Where, ϕr and ϕs are the quantum yield of reference and sample respectively, Fr and Fs are the integrated intensities (areas) of standard and sample spectra, nr and ns are the refractive indices of the reference and sample solution, Ar and As are the absorbance intensities of reference and sample respectively.

Series [3] deals with (D1)mix. Kind of series: Fluorescence quantum yield in presence of DNA. It is filed as binding. On the procedure:
as §1, §2

Series [4] concerns Drew-AT. Kind of series: Fluorescence quantum yield in presence of DNA. The class given is binding. On the procedure:
as §1, §2

Series [5] deals with d(ATAT)5. Briefly: Fluorescence quantum yield in presence of DNA. It is filed as binding. The following applies: in presence of D(ATAT)5. On the procedure:
as §1, §2

Series [6] relates to MCF-7 cells. Kind of series: Cell viability assay (MTT). It is filed as cell-based. The note with it: MCF-7, up to 8 μM, about 72 hours. On the procedure: MCF-7 cells (4×10^3 cells/well) are seeded in 96-well plate (flat bottom) and cultured for 12 hours. Following this, cells are treated with […] of probe QCy-DT respectively for about 72 hours and further incubated in a humidified CO2 incubator at about 37° C. 20 μL of MTT (5 mg/mL in PBS) solution is added to each well and incubated for about 4 hours at about 37° C. in the CO2 incubator. DMSO (200 μL) is then added to each well. After about 1 hour, absorbance is taken in ELISA microplate reader at 570 nm wavelength.
Following formula is applied for the calculation of percentage of cell viability (CV): CV=(absorbance of the experimental samples/absorbance of the control sample)×100
The data is normalized with control and plotted with mean and standard error.

Series [7] concerns MCF-7 cells. Briefly: Photostability assay by confocal fluorescence microscopy. The following applies: 2 μM. The class given is cell-based. Here is the method: MCF-7 Cells are propagated on 20 mm cover slips in a 6-well plate in DMEM medium supplemented with 10% fetal bovine serum at about 37° C. in a humidified atmosphere containing 5% CO2 till 80% confluency is achieved. Cells are incubated for a duration of about 60 min with probe QCy-DT (resuspended in Mili-Q water) at 2 μM concentration in a humidified CO2 incubator at about 37° C. Following treatment, the photostability of QCy-DT is measured by continuous scanning using OLYMPUS FV1000 confocal fluorescence microscope, under 568 nm line of an Argon ion laser for different time durations of about 10 sec, 120 sec and 300 sec. Olympus Fluoview software is used to quantitatively investigate the intensity of signals of QCy-DT at zero time points and after photo bleaching. The data is plotted with mean and standard error.

Consider `C[n+]1c(/C=C/c2ccc(O)c(/C=C/c3sc4ccccc4[n+]3C)c2)sc2ccccc21` [QCy-DT, quinone cyanine-dithiazole], for which, in series [1], the fluorescence response entry is listed as “very weak response”. Also, the “Quantum Yield (ΦF)” value in series [2] is around 0.32; in series [3], 0.08; in series [4], around 0.25; in series [5], 0.08. The cell viability in series [6] is reported as above 76%. This compound also yielded a remainder fluorescence intensity in series [7] (MCF-7, 120-second argon ion laser excitation at 568 nm) of around 80%. For the same compound, the fluorescent signal intensity in series [7] (MCF-7, 300 sec excitation at 568 nm) is listed as around 50%.

For orientation: cell viability means a per cent measure of how many cells are alive, often set against a control. High values mean better survival, low ones a greater loss of cells.
